Key:
[1] = test system: LPS-induced TNF-α release in peripheral blood mononuclear cells (PBMCs); assay: PDE4 inhibitory activity in the PBMCs assay (LPS-induced TNF-α release); type: cell-based; settings: human PBMCs, LPS 3 ng/ml, 18 hours, TNF-α by ELISA
Description: The assay, which is based on the known inhibitory activity exerted by PDE4 inhibitors on the lipopolysaccharides (LPS)-induced tumour necrosis factor-alpha (TNF-α release in peripheral blood mononuclear cells (PBMCs), was performed according to a method previously described (Hatzelmann A. et al., J. Pharmacol. Exp. Ther., 2001; 297:267-279; Draheim R. et al., J. Pharmacol. Exp. Ther., 2004; 308:555-563. Cryopreserved human PBMCs, (100 μl/well) were incubated in 96-well plates (10^5 cells/well), for 30 min, in the presence or absence (50 microl) of the test compounds whose concentrations ranged from 10^−12 M to 10^−6M. Subsequently, LPS (3 ng/ml) was added. After 18 hours of incubation at 37° C. in a humidified incubator under an atmosphere of 95% air and 5% CO2, culture medium was collected and TNF-α measured by ELISA.
The effects of the tested compounds were calculated as percentage of inhibition of TNF-α release, assuming LPS-induced TNF-α production in the absence of inhibitor compound as 100% and basal TNF-α production of PBMCs in the absence of LPS as 0%.

PDE4 enzyme = assay: In vitro PDE4 inhibitory activity in the cell free assay (cAMP disappearance, U937 cell supernatant); type: biochemical, human; settings: 1.6 μM cAMP, 30° C. 30 minutes
Description: The U937 human monocytic cell line was used as source of PDE4 enzyme. Cells were cultured, harvested and supernatant fraction prepared essentially as described in Torphy, T. J. et al., J. Pharmacol. Exp. Ther., 1992; 263:1195-1205. PDE4 activity was determined in cells supernatants by assaying cAMP disappearance from the incubation mixtures. 50 μl of cell supernatant were incubated at 30° C. for 30 minutes in a final volume of 200 μl in the presence of 1.6 μM cAMP with or without the test compound (50 μl).
The concentration of the test compounds ranged between 10^−12 M and 10^−6 M. Reactions were stopped by heat inactivation (2.5 minutes at 100° C.) and residual cAMP was measured using an electrochemiluminescence (ECL)-based immunoassay.
Percentage of inhibition of PDE4 activity was calculated, assuming cAMP disappearance in the absence of inhibitors as 100% and cAMP disappearance in heat inactivated samples as 0%.

HPDE4 = assay: Competition for high affinity HPDE4 ([H^3] rolipram binding); settings: 50% inhibition of the binding of [H^3] rolipram
Source text: (§1) Advantageously the compounds of the invention are characterized by selectivity toward LPDE4 higher than that toward HPDE4 as obtained by the determination of their IC50. In the case of LPDE4, the IC50 is the molar concentration of the test compound producing 50% inhibition of cAMP disappearance, assessed as described in Cortijo, J. et al., Br. J. Pharmacol., 1993, 108: 562-568, while in the case of HPDE4, the IC50 is the molar concentration of the test compound producing 50% inhibition of the binding of [H^3] rolipram, assessed as described in Duplantier, A. J. et al., J. Med. Chem., 1996; 39: 120-125. Preferably the HPDE4/LPDE4 IC50 ratio for the compounds of the invention is higher than 5, preferably higher than 10, more preferably higher than 20 and even more preferably higher than 100.
(§2) The affinity toward LPDE4 and HPDE4 was assessed as previously described respectively in Cortijo J. et al., Br. J. Pharmacol., 1993, 108: 562-568 and Duplantier A. J. et al., J. Med. Chem., 1996; 39: 120-125. In the case of LPDE4, the IC50 is the molar concentration of the test compound producing 50% inhibition of cAMP disappearance, while in the case of HPDE4, the IC50 is the molar concentration of the test compound producing 50% inhibition of the binding of [H^3] rolipram.

LPDE4 [2] = assay: Inhibition of low affinity LPDE4 (cAMP disappearance); type: biochemical; settings: ratio of IC50 values
Source text: as §1, §2

LPDE4 [3] = test system: T1, LPDE4; assay: as above; type: biochemical; settings: 50% inhibition of cAMP disappearance
T1 construct: LPDE4 IC50
Source text: as §1, §2

Row | Compound | IC50 ([1]; PBMC) | IC50 (PDE4 enzyme) | IC50 (HPDE4) | HPDE4/LPDE4 (LPDE4 [2]) | IC50 (LPDE4 [3]) | IC50 [1]
1 | COc1ccc(C(Cc2c(Cl)cncc2Cl)OC(=O)[C@@H](C)c2ccc(CC(C)C)cc2)cc1OC (stereo partly drawn) [Compound 1, (S)-2-(4-isobutyl-phenyl)-propionic acid 2-(3,5-dichloro-pyridin-4-yl)-1-(3,4-dimethoxy-phenyl)-ethyl ester] | 69 nM | 118 nM | – | – | – | –
2 | COc1ccc(C(Cc2c(Cl)cncc2Cl)OC(=O)Cc2ccccc2)cc1OC (stereo not drawn) [Compound 2, phenyl-acetic acid 2-(3,5-dichloro-pyridin-4-yl)-1-(3,4-dimethoxy-phenyl)-ethyl ester] | 89 nM | – | – | – | – | –
3 | COc1ccc(C(Cc2c(Cl)cncc2Cl)OC(=O)C2(c3ccccc3)CC2)cc1OC (stereo not drawn) [Compound 3, 1-phenyl-cyclopropanecarboxylic acid 2-(3,5-dichloro-pyridin-4-yl)-1-(3,4-dimethoxy-phenyl)-ethyl ester] | 52 nM | 118 nM | – | – | – | –
4 | COc1ccc(C(=O)OC(Cc2c(Cl)cncc2Cl)c2ccc(OC)c(OC)c2)cc1OC (stereo not drawn) [Compound 4, 3,4-dimethoxy-benzoic acid 2-(3,5-dichloro-pyridin-4-yl)-1-(3,4-dimethoxy-phenyl)-ethyl ester] | 34.2 nM | 3.4 nM | – | – | – | –
5 | CC(C)(C)OC(=O)N[C@@H](C(=O)OC(Cc1c(Cl)cncc1Cl)c1ccc(OC(F)F)c(OCC2CC2)c1)c1ccccc1 (stereo partly drawn) [Compound 6, (R)-tert-butoxycarbonylamino-phenyl-acetic acid 1-(3-cyclopropylmethoxy-4-difluoromethoxy-phenyl)-2-(3,5-dichloro-pyridin-4-yl)-ethyl ester] | 95 nM | 9 nM | – | – | – | –
6 | N[C@H](C(=O)OC(Cc1c(Cl)cncc1Cl)c1ccc(OC(F)F)c(OCC2CC2)c1)c1ccccc1 (stereo partly drawn) [Compound 7, (S)-amino-phenyl-acetic acid 1-(3-cyclopropylmethoxy-4-difluoromethoxy-phenyl)-2-(3,5-dichloro-pyridin-4-yl)-ethyl ester] | 99 nM | 7 nM | – | – | – | –
7 | N[C@@H](C(=O)OC(Cc1c(Cl)cncc1Cl)c1ccc(OC(F)F)c(OCC2CC2)c1)c1ccccc1 (stereo partly drawn) [Compound 8, (R)-amino-phenyl-acetic acid 1-(3-cyclopropylmethoxy-4-difluoromethoxy-phenyl)-2-(3,5-dichloro-pyridin-4-yl)-ethyl ester] | – | 22 nM | – | – | – | –
8 | COc1ccc(C(Cc2c(Cl)cncc2Cl)OC(=O)C(C)c2ccc(CC(C)C)cc2)cc1OC1CCCC1 (stereo not drawn) [Compound 9, 2-(4-isobutyl-phenyl)-propionic acid 1-(3-cyclopentyloxy-4-methoxy-phenyl)-2-(3,5-dichloro-pyridin-4-yl)-ethyl ester] | 85 nM | 22 nM | 399 nM | 541 | 0.738 nM | –
9 | O=C(OC(Cc1c(Cl)cncc1Cl)c1ccc(OC(F)F)c(OCC2CC2)c1)c1ccc(OC(F)F)c(OCC2CC2)c1 (stereo not drawn) [Compound 11, 3-cyclopropylmethoxy-4-difluoromethoxy-benzoic acid 1-(3-cyclopropylmethoxy-4-difluoromethoxy-phenyl)-2-(3,5-dichloro-pyridin-4-yl)-ethyl ester] | 51 nM | 12 nM | 153 nM | 1319 | 0.116 nM | –
10 | CC(C)Cc1ccc(C(C)C(=O)OC(Cc2c(Cl)cncc2Cl)c2ccc(OC(F)F)c(OCC3CC3)c2)cc1 (stereo not drawn) [Compound 12, 2-(4-isobutyl-phenyl)-propionic acid 1-(3-cyclopropylmethoxy-4-difluoromethoxy-phenyl)-2-(3,5-dichloro-pyridin-4-yl)-ethyl ester] | 456 nM | 12 nM | – | – | – | –
11 | COc1ccc(C(Cc2c(Cl)c[n+]([O-])cc2Cl)OC(=O)C(C)c2ccc(CC(C)C)cc2)cc1OC [Compound 13, (S)-2-(4-isobutyl-phenyl)-propionic acid 2-(3,5-dichloro-1-oxy-pyridin-4-yl)-1-(3,4-dimethoxy-phenyl)-ethyl ester] | 13 nM | – | – | – | – | –
12 | O=C(OC(Cc1c(Cl)c[n+]([O-])cc1Cl)c1ccc(OC(F)F)c(OCC2CC2)c1)c1ccc(OC(F)F)c(OCC2CC2)c1 (stereo not drawn) [Compound 14, 3-cyclopropylmethoxy-4-difluoromethoxy-benzoic acid 1-(3-cyclopropylmethoxy-4-difluoromethoxy-phenyl)-2-(3,5-dichloro-1-oxy-pyridin-4-yl)-ethyl ester] | 2 nM | – | – | – | – | –
13 | CC(C)Cc1ccc(C(C)C(=O)OC(Cc2c(Cl)c[n+]([O-])cc2Cl)c2ccc(OC(F)F)c(OCC3CC3)c2)cc1 (stereo not drawn) [Compound 15, 2-(4-isobutyl-phenyl)-propionic acid 1-(3-cyclopropylmethoxy-4-difluoromethoxy-phenyl)-2-(3,5-dichloro-1-oxy-pyridin-4-yl)-ethyl ester] | – | 8.6 nM | 2.17 nM | 273 | 0.169 nM | 15 nM
14 | COc1ccc(C(Cc2c(Cl)cncc2Cl)OC(=O)C(C)c2ccc(N)cc2)cc1OC (stereo not drawn) [Compound 16, 2-(4-amino-phenyl)-propionic acid 2-(3,5-dichloro-pyridin-4-yl)-1-(3,4-dimethoxy-phenyl)-ethyl ester] | 36 nM | 6.3 nM | – | – | – | –
15 | COc1ccc(C(O)Cc2c(Cl)c[n+]([O-])cc2Cl)cc1OC1CCCC1 (stereo not drawn) [Compound 20] | – | – | 299 nM | 394 | 0.759 nM | –

Source: patent publication US9102619B2, “Derivatives of 1-phenyl-2-pyridinyl alkyl alcohols as phosphodiesterase inhibitors” (Chiesi Farmaceutici S.p.A., priority 2007, dated 2015)
